Experimental data: patent US11560368B2, “Apoptosis signal-regulating kinase 1 inhibitors and methods of use thereof” (Enanta Pharmaceuticals, Inc., priority 2017, dated 2023)

Molecular target: ASK1 kinase (Homo sapiens (Human), UniProt Q99683)
Assay: ASK1 kinase inhibition, HTRF KinEASE-STK TR-FRET assay
Format: biochemical
Conditions: 5 nM ASK1, 1 uM STK3 peptide substrate, 100 uM ATP, 3 hours
Method: The ability (IC50) of compounds to inhibit ASK1 kinase activity was determined by HTRF® KinEASE™ Assay System.
ASK1 was purchased from Thermofisher (Catalogue # PV4011), ATP was purchased from Sigma (Catalogue # A7699), HTRF® KinEASE™ Assay System was obtained from Cisbio (Bedford, Mass.). ½ A Area plate was purchased from Perkin Elmer (Catalogue # #6005560). HTRF® KinEASE™-STK is a generic method for measuring serine/threonine kinase activities using a time-resolved fluorescence resonance energy transfer (TR-FRET) immunoassay. The IC50 value for each compound was determined in the presence of compound (various concentration from 0 to 10 μM) and a fixed amount of ATP and peptide substrates. The test compound, 1 uM STK3 peptide substrate, and 5 nM of ASK1 kinase are incubated with kinase reaction buffer containing 50 mM HEPES pH 7.5, 0.01% BRU-35, 10 mM MgCl2, and 1 mM EGTA for 30 minutes. 100 uM ATP is added to start kinase reaction and incubated for 3 hours. The STK3-antibody labeled with Eu^3+-Cryptate and 125 nM streptavidin-XL665 are mixed in a single addition with stop reagents provided by the Cisbio kit used to stop the kinase reaction. Fluorescence is detected using an Envision Multilabeled 2014 reader from PerkinElmer. The Fluorescence is measured at 615 nm (Cryptate) and 665 nm (XL665) and a ratio of 665 nm/615 nm is calculated for each well. […] IC50 was determined by XLfit 5.3. […]

Chain of ASK1 kinase (Q99683 whole entry): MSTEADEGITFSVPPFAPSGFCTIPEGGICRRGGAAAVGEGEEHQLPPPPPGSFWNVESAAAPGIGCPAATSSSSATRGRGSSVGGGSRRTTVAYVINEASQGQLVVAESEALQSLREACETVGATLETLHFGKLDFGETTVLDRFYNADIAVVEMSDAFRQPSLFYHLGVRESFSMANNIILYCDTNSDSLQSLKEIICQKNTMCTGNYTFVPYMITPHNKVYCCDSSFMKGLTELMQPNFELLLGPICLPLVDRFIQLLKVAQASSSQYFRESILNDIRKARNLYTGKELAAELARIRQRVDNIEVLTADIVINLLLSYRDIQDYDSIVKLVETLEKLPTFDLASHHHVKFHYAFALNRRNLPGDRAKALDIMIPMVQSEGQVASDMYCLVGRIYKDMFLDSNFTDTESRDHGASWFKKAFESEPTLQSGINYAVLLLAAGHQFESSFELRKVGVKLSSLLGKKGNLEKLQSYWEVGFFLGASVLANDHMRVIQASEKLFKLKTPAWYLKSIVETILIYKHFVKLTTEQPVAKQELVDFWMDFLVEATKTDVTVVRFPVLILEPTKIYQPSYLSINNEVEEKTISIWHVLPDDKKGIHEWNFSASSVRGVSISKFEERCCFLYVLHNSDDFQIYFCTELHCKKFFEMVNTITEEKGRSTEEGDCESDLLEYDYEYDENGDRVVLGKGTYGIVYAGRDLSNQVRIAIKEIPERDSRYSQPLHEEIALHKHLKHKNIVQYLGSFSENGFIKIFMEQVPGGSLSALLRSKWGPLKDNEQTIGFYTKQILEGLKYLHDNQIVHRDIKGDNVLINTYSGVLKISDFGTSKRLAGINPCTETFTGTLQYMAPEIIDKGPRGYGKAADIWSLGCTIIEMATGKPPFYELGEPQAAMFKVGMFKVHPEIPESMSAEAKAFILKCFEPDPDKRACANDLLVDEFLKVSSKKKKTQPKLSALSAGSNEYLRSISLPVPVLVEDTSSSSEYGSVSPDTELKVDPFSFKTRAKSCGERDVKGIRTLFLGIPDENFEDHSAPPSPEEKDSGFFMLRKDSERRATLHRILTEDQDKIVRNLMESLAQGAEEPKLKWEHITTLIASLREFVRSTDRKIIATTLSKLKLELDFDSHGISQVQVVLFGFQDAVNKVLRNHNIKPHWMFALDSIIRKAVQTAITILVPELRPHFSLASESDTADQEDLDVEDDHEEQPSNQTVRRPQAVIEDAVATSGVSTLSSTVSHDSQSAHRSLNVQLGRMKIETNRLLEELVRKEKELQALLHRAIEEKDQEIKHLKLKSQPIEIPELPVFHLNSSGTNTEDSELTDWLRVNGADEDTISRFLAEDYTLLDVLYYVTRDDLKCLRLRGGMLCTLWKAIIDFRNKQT

IC50: 100 to 1000 nM
SMILES: Cc1cc(F)c(C(=O)Nc2cccc(-c3nnnn3C(C)C)n2)cc1-n1cnc(C(F)(F)F)c1 [Example 2b]
